Reference: patent publication US6852485B1, “Method for identifying a compound for the treatment of microorganism infections by inhibiting energy storage and utilization in pathogens” (California State University Fullerton Foundation, priority 2002, dated 2005)

Target: T1, Rhodobacter sphaeroides (Rb.s.) ADPG Ppase (Cereibacter sphaeroides, UniProt Q9RNH7)
T1 construct: made in house
Experiment: ADPGlc synthesis assay (14-C Glc-1-P converted to ADPGlucose) with purified recombinant Rb.s. ADPG Ppase, with and without activator F6P
Format: biochemical
Conditions: for inhibition of Rb.s. ADPG Ppase: 500 μM analog, 0.25 mM ATP, 0.5 mM Glc-1-P, pH 7
Text: One particular in vitro method for assessing the activity of an inhibitor to purified ADPGlc PPase is the following: • Assaying for ADPGlc synthesis activity involves measuring the amount of 14-C labeled Glc-1-P converted to ADPGlucose (Preiss, J., Shen, L., Greenberg, E., and Gentner, N. (1966) Biochemistry 5, 1833-1845). Briefly, unreacted Glc-1-P is separated from product by the following steps: 1)digestion with alkaline phosphatase (thus removing the negatively charged phosphate); 2) spotting an aliquot of the reaction mixture on to positively charged DE-81 filters (Whatman); and 3) washing the filters with water (thus removing the now neutral C-14 glucose).
To assess the effect of a putative inhibitor, enzyme assays are performed at a subsaturating concentration of substrate (depending on the enzyme, ATP=0.2-1 mM, Glc-1-P=0.5 mM) under standard conditions in the absence and presence of the major activator for each enzyme (1-5 mM depending on enzyme). In this way, the effect of the inhibitors can be evaluated under the range of the expected in vivo conditions. Initial screening of a putative inhibitor typically includes testing at two concentrations (˜25 μM and 1 mM)±major activator with appropriate controls and blanks for a total of 9 assays/inhibitor/enzyme (2 control assays—appropriate enzyme concentrations in the absence of inhibitor; 4 experimental assays; 1 blank in the absence of inhibitors; 2 blanks in the presence of inhibitor (no activator required).
The APDGIc Ppase from Rhodobacter sphaeroides has been used as a model enzyme for initial testing of inhibitors as it has been cloned, sequenced, and expressed in the inventor's laboratory (Meyer et al (1999) Arch. Biochem. Biophys. 372, 179-188; Igarashi, R. Y. and Meyer, C. R. (2000) Arch. Biochem. Biophys. 376, 47-58) and the purified recombinant enzyme is readily available. Further, this particular enzyme has the most complex regulation (having partial overlap with nearly every type of ADPG Ppase) and has sufficient homology (ranging from ˜40-70% similarity) to the enzyme primary sequence from the mentioned pathogenic bacteria.
PREMIX: A: 100 mM HEPES (pH 7), 0.5 mg/mL BSA, 0.5 mM Glc-1-P, 0.25 mM ATP subsaturating (near S0.5 value), 5 mM MgCl2, (0.2 U Pyrophosphatase))
PREMIX B: A+1 mM F6P (170 μL premix will allow 20 μL for analog vol., 10 μL of E)
II. ANALOG CONC.=5, 50, 500 μM (STOCK CONC.=5 mM) in 50 mM HEPES, pH 7, note that 20 μL of 5 mM in 200 μL assay will yield 500 μM final concentration to obtain 5 mM aliquots: • ANALOG I: add 625 μL of HEPES buffer, mix thoroughly • ANALOG II: add 500 μL of HEPES buffer, mix thoroughly
1:10 DILUTION ALIQUOTS OF 5 mM STOCKS are prepared in order to generate stock solutions that will give 50 and 5 μM with the addition of 20 μL. 100 μL aliquots are stored at −20 C
RBS ADPG PPASE WT ENZYME CONC.=17 mg/mL (use 1:8000 dilution in Dilution Buffer)
THE FOLLOWING ASSAY SET OF 11 ARE UTILIZED FOR EACH ANALOG • 1-BLANK (Premix A) • 2-BLANK+50 μM ANALOG (A) • 3-BLANK+500 μM ANALOG (A) • 4-E CON (A) • 5-E CON+F6P (B) • 6-E+5 μM (A) • 7-E+5 μM((B) • 8-E+50 μM(A) • 9-E+50 μM(B) • 10-E+500 μM (A) • 11-E+500 μM (B)
Purified Rb.s ADPG Ppase was assayed under standard conditions (0.25 mM ATP [˜S0.5 value], 0.5 mM Glc-1-P, 5 mM Mg, 100 mM HEPES, pH7) in the presence and absence of the activator F6P (1 mM) at 3 concentrations of the analogs: 5, 50, and 500 μM. Analog stock solutions were made in 50 mM HEPES, pH 7). These concentrations should be regarded as estimates as there could have been some breakdown of the compounds during 2 years of storage at −20° C. The analogs had no effect on the background cpm of the assays.

[1] = E + 5 uM analog, Premix A (no F6P)
[2] = E + 5 uM analog, Premix B (+1 mM F6P)
[3] = E + 50 uM analog, Premix A (no F6P)
[4] = E + 50 uM analog, Premix B (+1 mM F6P)
[5] = E + 500 uM analog, Premix A (no F6P)
[6] = E + 500 uM analog, Premix B (+1 mM F6P)

T1 sequence (Q9RNH7 whole entry): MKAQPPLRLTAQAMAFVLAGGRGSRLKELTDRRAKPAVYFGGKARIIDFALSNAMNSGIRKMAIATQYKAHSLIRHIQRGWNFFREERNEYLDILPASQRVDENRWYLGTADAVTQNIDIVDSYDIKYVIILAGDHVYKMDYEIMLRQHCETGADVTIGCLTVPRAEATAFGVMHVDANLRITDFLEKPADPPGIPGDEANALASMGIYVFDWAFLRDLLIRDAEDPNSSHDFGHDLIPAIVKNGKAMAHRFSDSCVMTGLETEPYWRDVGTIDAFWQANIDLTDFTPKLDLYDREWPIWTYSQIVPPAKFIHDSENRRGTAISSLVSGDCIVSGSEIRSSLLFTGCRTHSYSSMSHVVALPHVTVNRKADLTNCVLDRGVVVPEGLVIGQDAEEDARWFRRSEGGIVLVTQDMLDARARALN

Q: Which “inhibition of Rb.s. ADPG Ppase” value (absence of the activator F6P) does the source give for `BP(=O)(OC[C@H]1O[C@@H](n2cnc3c(N)ncnc32)[C@H](O)[C@@H]1O)OP(=O)(O)O[C@H]1O[C@H](CO)[C@@H](O)[C@H](O)[C@H]1O` (single isomer, unassigned) [Analog II, adenosine-α-P-boranodiphosphoglucose] here?
A: about 70%

Q: What about the “inhibition of Rb.s. ADPG Ppase” value (presence of F6P (1 mM)) of the same compound?
A: about 70%

Q: And the “Units/mg (enzyme activity)” value [1]?
A: 5.28 Units/mg

Q: What about the “Units/mg (enzyme activity)” value [2] of the same compound?
A: 93.86 Units/mg

Q: And the “Units/mg (enzyme activity)” value [3]?
A: 4.38 Units/mg

Q: What about the “Units/mg (enzyme activity)” value [4] of the same compound?
A: 76.73 Units/mg

Q: What about the “Units/mg (enzyme activity)” value [5] of the same compound?
A: 1.77 Units/mg

Q: And the “Units/mg (enzyme activity)” value [6]?
A: 33.51 Units/mg

Q: For `BP(=O)(OC[C@H]1O[C@@H](n2cnc3c(N)ncnc32)[C@H](O)[C@@H]1O)OP(=O)(O)O[C@H]1O[C@H](CO)[C@@H](O)[C@H](O)[C@H]1O` (single isomer, unassigned) [Analog I, adenosine-α-P-boranodiphosphoglucose], which “inhibition of Rb.s. ADPG Ppase” value (absence of the activator F6P) is on record?
A: about 75%

Q: And the “inhibition of Rb.s. ADPG Ppase” value (presence of F6P (1 mM))?
A: ~50%

Q: What about the “Units/mg (enzyme activity)” value [1] of the same compound?
A: 4.02 Units/mg

Q: What about the “Units/mg (enzyme activity)” value [2] of the same compound?
A: 91.75 Units/mg

Q: And the “Units/mg (enzyme activity)” value [3]?
A: 3.55 Units/mg

Q: And the “Units/mg (enzyme activity)” value [4]?
A: 87.40 Units/mg

Q: What about the “Units/mg (enzyme activity)” value [5] of the same compound?
A: 1.33 Units/mg

Q: And the “Units/mg (enzyme activity)” value [6]?
A: 53.37 Units/mg
